ChEMBL document CHEMBL5543097, “Synthesis and structure-activity relationships of novel 14-membered 2-fluoro ketolides with structural modification at the C11 position” (Eur J Med Chem, 2024)
In brackets after ≈: the same amount, converted by molar mass. Activity calls are given as the source filed them. The rule behind the calls is not given here.

Experiments:
Streptococcus pneumoniae [1] = experiment: Antibacterial activity against erythromycin-resistant Streptococcus pneumoniae SPN19-14 assessed as inhibition of visible bacterial growth incubated for 18 hrs by broth microdilution method; type: functional
[2] = tested on: Staphylococcus epidermidis; experiment: Antibacterial activity against erythromycin-resistant Staphylococcus epidermidis 19-9 assessed as inhibition of visible bacterial growth incubated for 18 hrs by broth microdilution method; type: functional
[3] = tested on: Staphylococcus epidermidis; experiment: Antibacterial activity against erythromycin-resistant Staphylococcus epidermidis 19-4 assessed as inhibition of visible bacterial growth incubated for 18 hrs by broth microdilution method; type: functional
[4] = Metabolic stability in human liver microsome assessed as half life measured at 60 mins by LC-MS/MS analysis; type: ADME; details: liver microsomes
[5] = Cytotoxicity against mouse AML12 cells assessed as reduction in cell viability incubated for 48 hrs by MTT assay; type: toxicity, cell-based
Streptococcus pneumoniae [6] = experiment: Antibacterial activity against erythromycin-resistant Streptococcus pneumoniae SPN19-13 assessed as inhibition of visible bacterial growth incubated for 18 hrs by broth microdilution method; type: functional
[7] = tested on: Staphylococcus epidermidis; experiment: Antibacterial activity against erythromycin-resistant Staphylococcus epidermidis 19-6 assessed as inhibition of visible bacterial growth incubated for 18 hrs by broth microdilution method; type: functional
Streptococcus pyogenes = experiment: Antibacterial activity against erythromycin-resistant Streptococcus pyogenes ATCC 19615 assessed as inhibition of visible bacterial growth incubated for 18 hrs by broth microdilution method; type: functional
[8] = tested on: Staphylococcus epidermidis; experiment: Antibacterial activity against erythromycin-resistant Staphylococcus epidermidis 19-5 assessed as inhibition of visible bacterial growth incubated for 18 hrs by broth microdilution method; type: functional
[9] = tested on: Staphylococcus epidermidis; experiment: Antibacterial activity against erythromycin-resistant Staphylococcus epidermidis 19-11 assessed as inhibition of visible bacterial growth incubated for 18 hrs by broth microdilution method; type: functional
Moraxella catarrhalis [10] = experiment: Antibacterial activity against Moraxella catarrhalis BCA 19-31 assessed as inhibition of bacterial growth incubated for 24 hrs by CLSI based broth microdilution method; type: functional; details: BCA 19-31, 24 h
Streptococcus pneumoniae [11] = experiment: Antibacterial activity against erythromycin-resistant Streptococcus pneumoniae SPN19-8 assessed as inhibition of visible bacterial growth incubated for 18 hrs by broth microdilution method; type: functional
[12] = Metabolic stability in human liver microsome assessed as parent compound remaining in absence of NADPH measured at 60 mins by LC-MS/MS analysis; type: ADME; details: liver microsomes, read-out: Stability
[13] = Metabolic stability in human liver microsome assessed as parent compound remaining in presence of NADPH measured at 60 mins by LC-MS/MS analysis; type: ADME; details: liver microsomes, read-out: Stability
Moraxella catarrhalis [14] = experiment: Antibacterial activity against Moraxella catarrhalis BCA 19-5 assessed as inhibition of bacterial growth incubated for 24 hrs by CLSI based broth microdilution method; type: functional; details: Moraxella catarrhalis, BCA 19-5, 24 h, read-out: MIC
Haemophilus influenzae [15] = experiment: Antibacterial activity against Haemophilus influenzae HIN 20-18 assessed as inhibition of bacterial growth incubated for 20 to 24 hrs by CLSI based broth microdilution method; type: functional; details: time 20-24 hrs
Haemophilus influenzae [16] = experiment: Antibacterial activity against Haemophilus influenzae HIN 19-15 assessed as inhibition of bacterial growth incubated for 20 to 24 hrs by CLSI based broth microdilution method; type: functional; details: time 20-24 hrs
Moraxella catarrhalis [17] = experiment: Antibacterial activity against Moraxella catarrhalis BCA 19-6 assessed as inhibition of bacterial growth incubated for 24 hrs by CLSI based broth microdilution method; type: functional; details: Moraxella catarrhalis, BCA 19-6, 24 h, read-out: MIC
[18] = tested on: Staphylococcus epidermidis; experiment: Antibacterial activity against erythromycin-resistant Staphylococcus epidermidis 19-8 assessed as inhibition of visible bacterial growth incubated for 18 hrs by broth microdilution method; type: functional
Haemophilus influenzae [19] = experiment: Antibacterial activity against Haemophilus influenzae HIN 19-18 assessed as inhibition of bacterial growth incubated for 20 to 24 hrs by CLSI based broth microdilution method; type: functional; details: HIN 19-18, time 20-24 hrs
Streptococcus agalactiae [20] = experiment: Antibacterial activity against erythromycin-resistant Streptococcus agalactiae 19-9 assessed as inhibition of visible bacterial growth incubated for 18 hrs by broth microdilution method; type: functional
[21] = Metabolic stability in human liver microsome assessed as intrinsic clearance measured at 60 mins by LC-MS/MS analysis; type: ADME; details: liver microsomes, read-out: CLH
Escherichia coli = experiment: Antibacterial activity against Escherichia coli ATCC 35218 assessed as inhibition of visible bacterial growth; type: functional, organism-based
Streptococcus agalactiae [22] = experiment: Antibacterial activity against erythromycin-resistant Streptococcus agalactiae 19-8 assessed as inhibition of visible bacterial growth incubated for 18 hrs by broth microdilution method; type: functional
[23] = tested on: Staphylococcus epidermidis; experiment: Potency index, ratio of telithromycin MIC to test compound MIC for antibacterial activity against erythromycin-resistant Staphylococcus epidermidis 19-9 assessed as inhibition of visible bacterial growth incubated for 18 hrs by broth microdilution method; type: functional
Streptococcus pneumoniae [24] = experiment: Potency index, ratio of telithromycin MIC to test compound MIC for antibacterial activity against Streptococcus pneumoniae SPN19-14 assessed as inhibition of visible bacterial growth incubated for 18 hrs by broth microdilution method; type: functional
Streptococcus pneumoniae [25] = experiment: Potency index, ratio of telithromycin MIC to test compound MIC for antibacterial activity against Streptococcus pneumoniae SPN19-8 assessed as inhibition of visible bacterial growth incubated for 18 hrs by broth microdilution method; type: functional
[26] = tested on: Staphylococcus epidermidis; experiment: Potency index, ratio of telithromycin MIC to test compound MIC for antibacterial activity against erythromycin-resistant Staphylococcus epidermidis 19-8 assessed as inhibition of visible bacterial growth incubated for 18 hrs by broth microdilution method; type: functional
[27] = tested on: Staphylococcus epidermidis; experiment: Potency index, ratio of telithromycin MIC to test compound MIC for antibacterial activity against erythromycin-resistant Staphylococcus epidermidis 19-5 assessed as inhibition of visible bacterial growth incubated for 18 hrs by broth microdilution method; type: functional
Streptococcus pneumoniae [28] = experiment: Potency index, ratio of telithromycin MIC to test compound MIC for antibacterial activity against Streptococcus pneumoniae SPN19-13 assessed as inhibition of visible bacterial growth incubated for 18 hrs by broth microdilution method; type: functional
[29] = tested on: Staphylococcus epidermidis; experiment: Potency index, ratio of telithromycin MIC to test compound MIC for antibacterial activity against erythromycin-resistant Staphylococcus epidermidis 19-6 assessed as inhibition of visible bacterial growth incubated for 18 hrs by broth microdilution method; type: functional
[30] = tested on: Staphylococcus epidermidis; experiment: Potency index, ratio of telithromycin MIC to test compound MIC for antibacterial activity against erythromycin-resistant Staphylococcus epidermidis 19-4 assessed as inhibition of visible bacterial growth incubated for 18 hrs by broth microdilution method; type: functional
[31] = tested on: Staphylococcus epidermidis; experiment: Potency index, ratio of telithromycin MIC to test compound MIC for antibacterial activity against erythromycin-resistant Staphylococcus epidermidis 19-11 assessed as inhibition of visible bacterial growth incubated for 18 hrs by broth microdilution method; type: functional

SMILES	MIC (Streptococcus pneumoniae [1]) [µg/mL]	MIC [2] [µg/mL]	MIC [3] [µg/mL]	CC50 at 48 h [5] [µM]	MIC (Streptococcus pneumoniae [6]) [µg/mL]	MIC [7] [µg/mL]	MIC (Streptococcus pyogenes) [µg/mL]	MIC [8] [µg/mL]	MIC [9] [µg/mL]	MIC (Moraxella catarrhalis [10]) [µg/mL]	MIC (Streptococcus pneumoniae [11]) [µg/mL]	MIC (Moraxella catarrhalis [14]) [µg/mL]	MIC (Haemophilus influenzae [16]) [µg/mL]	MIC (Moraxella catarrhalis [17]) [µg/mL]	MIC [18] [µg/mL]	MIC (Haemophilus influenzae [19]) [µg/mL]	MIC (Streptococcus agalactiae [20]) [µg/mL]	Activity (Escherichia coli)	MIC (Streptococcus agalactiae [22]) [µg/mL]	further results
CC[C@H]1OC(=O)[C@@](C)(F)C(=O)[C@H](C)[C@@H](O[C@@H]2O[C@H](C)C[C@H](N(C)C)[C@H]2O)[C@](C)(OC)C[C@@H](C)C(=O)[C@H](C)[C@H]2N(CCCOC(=O)Nc3ccccc3C)C(=O)O[C@]12C	0.125 (≈ 0.152 µM)	0.25 (≈ 0.304 µM)	0.06 (≈ 0.073 µM)	> 100	0.125 (≈ 0.152 µM)	0.125 (≈ 0.152 µM)	< 0.03	< 0.03	< 0.03	0.05 (≈ 0.0608 µM)	0.125 (≈ 0.152 µM)	0.125 (≈ 0.152 µM)	4 (≈ 4.87 µM)	0.125 (≈ 0.152 µM)	0.06 (≈ 0.073 µM)	2 (≈ 2.43 µM)	0.5 (≈ 0.608 µM)	–	–	half-life [4]: 2.93 h; remaining at 1 h [12]: 101%; remaining at 1 h [13]: 73.3%; MIC (Haemophilus influenzae [15]): 16 µg/mL (≈ 19.5 µM); microsomal CLint [21]: 4 µL/min/mg
CC[C@H]1OC(=O)[C@@](C)(F)C(=O)[C@H](C)[C@@H](O[C@@H]2O[C@H](C)C[C@H](N(C)C)[C@H]2O)[C@](C)(OC)C[C@@H](C)C(=O)[C@H](C)[C@H]2N(CCCOC(=O)Nc3cccnc3)C(=O)O[C@]12C	0.125 (≈ 0.155 µM)	0.5 (≈ 0.618 µM)	0.25 (≈ 0.309 µM)	> 100	0.125 (≈ 0.155 µM)	125 (≈ 155 µM)	< 0.03	0.125 (≈ 0.155 µM)	0.125 (≈ 0.155 µM)	0.06 (≈ 0.0742 µM)	0.125 (≈ 0.155 µM)	0.06 (≈ 0.0742 µM)	4 (≈ 4.94 µM)	0.06 (≈ 0.0742 µM)	0.125 (≈ 0.155 µM)	4 (≈ 4.94 µM)	0.25 (≈ 0.309 µM)	Active	< 0.03	–
CC[C@H]1OC(=O)[C@@](C)(F)C(=O)[C@H](C)[C@@H](O[C@@H]2O[C@H](C)C[C@H](N(C)C)[C@H]2O)[C@](C)(OC)C[C@@H](C)C(=O)[C@H](C)[C@H]2N(CCCOC(=O)Nc3ccccc3[N+](=O)[O-])C(=O)O[C@]12C	0.25 (≈ 0.293 µM)	0.25 (≈ 0.293 µM)	0.125 (≈ 0.147 µM)	27.4	0.25 (≈ 0.293 µM)	0.125 (≈ 0.147 µM)	< 0.03	0.125 (≈ 0.147 µM)	0.125 (≈ 0.147 µM)	0.125 (≈ 0.147 µM)	1 (≈ 1.17 µM)	0.5 (≈ 0.586 µM)	8 (≈ 9.38 µM)	0.5 (≈ 0.586 µM)	0.125 (≈ 0.147 µM)	8 (≈ 9.38 µM)	4 (≈ 4.69 µM)	Active	< 0.03	–
CC[C@H]1OC(=O)[C@@](C)(F)C(=O)[C@H](C)[C@@H](O[C@@H]2O[C@H](C)C[C@H](N(C)C)[C@H]2O)[C@](C)(OC)C[C@@H](C)C(=O)[C@H](C)[C@H]2N(CCCOC(=O)Nc3ccc4sccc4c3)C(=O)O[C@]12C	0.03 (≈ 0.0347 µM)	1 (≈ 1.16 µM)	0.03 (≈ 0.0347 µM)	11.6	< 0.03	0.06 (≈ 0.0694 µM)	< 0.03	< 0.03	< 0.03	–	0.06 (≈ 0.0694 µM)	–	–	–	0.06 (≈ 0.0694 µM)	–	0.25 (≈ 0.289 µM)	–	–	Ratio [23]: 4; Ratio (Streptococcus pneumoniae [24]): <4; Ratio (Streptococcus pneumoniae [25]): <4; Ratio [26]: 4; Ratio [27]: 4; Ratio (Streptococcus pneumoniae [28]): <4; Ratio [29]: 4; Ratio [30]: 4; Ratio [31]: 4
